Legend:
CHO-K1 cells = test: cells; type: cell-based, Chinese hamster; conditions: for CHOK1 48 h EC10: Chinese hamster; for EC50: Cricetulus griseus, CHO-K1, 48 h, read-out: CHOK1 48 h EC50
Protocol: (§1) A cell growth assay using the MTS reagent was conducted to assess the general toxicity of each chalcone compound. Briefly, cell growth was assayed in sterile 96-well microtiter plates (Costar 3599, Corning Inc., Corning, NY, USA) in the presence of each chalcone. Experiments were conducted in triplicate. In a typical experiment, there are two plates. The first is the control plate, which allows one to assess the starting cell population on the day of drug addition (Day 0). The second plate is the test plate where cells are plated and tested with different drug concentrations on Day 0. For example, either CHO cells or Hs27 cells were plated in a 200 µL volume at 1000 cells/well on both the control and test plates and incubated overnight to allow the cells to adhere. On Day 0, 1 μL of PBS was added to the control plate wells so that their total volume was 201 μL. MTS reagent (Promega Cell Titer 96 Aqueous non-radioactive cell proliferation reagent, Promega, Madison, WI, USA) was added (20 μL) to each well on the control plate, and that plate was incubated for 4 h in a 5% CO2 atmosphere at 37 °C and then read on the plate reader.
(§2) On Day 0, 1 μL of a 200× stock solution of each chalcone was added to the respected well on the test plate, and each condition was tested in triplicate. Drug solutions were prepared in advance in 100% DMSO and dosed so that the final DMSO concentration was 0.5%. For example, 1 μL of chalcone solution was added to the cells plated in each well in 200 μL of media. Of note, the respective chalcone addition occurred after an initial overnight incubation of each cell line in each well to reach Day 0 (the drugging day). After the chalcone was added, the cells were incubated in 5% CO2 for 48 h at 37 °C. After 48 h, the MTS reagent (Promega, Madison, WI, USA) was added (20 μL), and the test plates were incubated for an additional 4 h, and then, absorbance at 490 nm was measured on a BioTek Synergy MX plate reader. […] IC50 values were determined from the corresponding plot of relative absorbance at 490 nm vs. the drug concentration.
(§3) For highly colored materials like the chalcones, it is important to consider the contribution of the compound’s own absorbance to the MTS assay. To correct for the absorbance contribution of the chalcone itself, we measured each chalcone’s absorbance (Chalcone Abs) at 490 nm at the respective concentration (e.g., 10 µM) and subtracted the absorbance of the media background (blank Abs). This net value was then subtracted out of the Day 2 absorbance value to provide the % relative growth via the following equation:(1) % Relative Growth = (Day 2 Abs−Day 2 blank Abs)−Chalcone Abs−blank Abs−(Day 0 Abs−Day 0 blank Abs)/(Day 2 Control Abs −Day 2 blank Abs)−(Day 0 Abs−Day 0 blank Abs) ×100%
With the chalcones in hand, we then evaluated their growth-inhibition properties in Chinese hamster ovary (CHO-K1) cells and human Hs27 fibroblast cells. […] The results are shown in Table 2 along with a SAR summary of our findings in the host Hs27 cells.

Hs27 cells = test: 48 h MTS growth inhibition assay in Hs27 cells; type: cell-based, human; conditions: for EC50: Homo sapiens, HS27, 48 h, read-out: Hs27 48 h EC50; for Hs27 48 h EC10: highest concentration giving 90% relative new cell growth after 48 h, 0.5% DMSO
Protocol: as §1, with “Briefly, cell growth was assayed in sterile 96-well microtiter plates (Costar 3599, Corning Inc., Corning, NY, USA) in the presence of each chalcone.” left out
as §2, §3
With the chalcones in hand, we then evaluated their growth-inhibition properties in Chinese hamster ovary (CHO-K1) cells and human Hs27 fibroblast cells.

PIV5-GFP = PIV5-GFP viral GFP expression in Hs27 cells by flow cytometry; type: cell-based, parainfluenza virus 5; conditions: 10 µM; Hs27 cells infected with PIV5-GFP
Protocol: Parainfluenza virus 5 (PIV5) expressing green fluorescence protein (GFP) was derived from cDNA, grown at 37 °C in Madin–Darby bovine kidney (MDBK) cells and titered on CV-1 (African green monkey kidney) cells with a fibroblast morphology as previously described. MDBK and CV-1 cells were the kind gift of Dr. Robert Lamb (Northwestern University). Cells were infected with virus diluted in DMEM supplemented with 10% bovine serum albumin (BSA) for 1 h or mock infected with media alone. Following incubation, cells were washed with phosphate-buffered saline (PBS) and cultured in DMEM supplemented with 2% heat-inactivated (HI) FBS.
Chalcone treatments were performed in DMEM supplemented with 10% HI FBS at the indicated concentrations and for indicated periods of time. Chalcone stocks were reconstituted in 100% dimethyl sulfoxide (DMSO) at a concentration of 10 mM and were serially diluted to working concentrations in DMSO. DMSO control treatments to test the effect of the vehicle were performed at volumes corresponding to the volume of chalcone added during each experiment (i.e., 1 µL chalcone DMSO solution/1 mL DMEM [10 µM] utilized alongside the DMSO control of 1 µL/1 mL DMEM). For cytotoxicity assays, untreated controls were subtracted from DMSO and chalcone sample values to account for the background signal.
For cytotoxicity assays, cells were stained with propidium iodide (PI) at a dilution of 1:100. Cell viability was determined via flow cytometry using the CytoFLEX (Beckman Coulter, Brea, CA, USA). CytExpert software (Beckman Coulter, version 2.4) was used to analyze independent events. PIV5 infection was monitored using flow cytometry via the FITC channel by analyzing GFP expression of individual cells. ZIKV infection was monitored utilizing Flavivirus group antigen–antibody (D1-4G2-4-15; Novus Biologicals, Littleton, CO, USA) staining for the ZIKV envelope protein. Cells were fixed and permeabilized using eBioscience Intracellular Fixation and Permeabilization Buffer (Invitrogen, Thermo Fisher Scientific, MA, USA) according to the manufacturer’s instructions. Secondary staining was performed using an anti-Alexa Fluor 488 (AF488) antibody (Invitrogen, Thermo Fisher Scientific, MA, USA). OC43 infection was monitored utilizing a primary antibody targeted toward the OC43 nucleocapsid protein (NP, MAB9013, Sigma-Aldrich, St. Louis, MO, USA). Secondary staining was performed using an AF488 antibody. Cells were fixed and permeabilized as previously described. LACV infection was monitored utilizing an anti-LACV Gc 807.31ab antibody kindly provided by Andrew Pekosv. Secondary staining was performed using an AF488 antibody. Cells were fixed and permeabilized as previously described.
To measure the effect of chalcone treatment on PIV5 virus growth, Hs27 cells were infected with PIV5-GFP. This engineered negative sense single-stranded RNA virus expresses GFP, which serves as a genome-encoded protein readout. After entering a cell, PIV5 must first undergo primary transcription to convert its genome into mRNA. As genome replication begins, nascent genomes then become templates for further conversion to mRNA and viral gene expression becomes amplified in a process called secondary transcription. For viral proteins to be detectable in cell culture, this amplification must first take place, making the expression of GFP a direct indicator of whether secondary transcription has successfully occurred. […] As shown in the representative data in Figure 4A, ~82% of DMSO-treated PIV5-GFP infected cells were positive for GFP expression. This was reduced to ~2% GFP-positive cells after treatment with 8o. […] These chalcones were therefore selected for further screening for cytotoxicity.
The GFP IC50 was defined as the concentration of chalcone required to inhibit the GFP expression (as measured via flow cytometry) by 50% when compared to DMSO-treated cells. […]

mTOR signaling [1] = test: Western blot of prps6 and rps6 as readouts of mTOR signaling in PANC-1 cells; type: cell-based; conditions: 72 h, chalcones 10 µM, rapamycin 10 nM
Protocol: PANC-1 cells were cultured in 6-well dishes and were lysed using modified radioimmunoprecipitation assay (RIPA) buffer (20 mM HEPES, pH 7.0, 150 mM NaCl, 1 mM EDTA, 1% NP-40, 1% deoxycholate, and 0.1% sodium dodecyl sulfate [SDS]) containing a complete protease inhibitor cocktail (Roche, Mannheim, Germany) and PhosSTOP phosphatase inhibitor cocktail (Roche, Mannheim, Germany). Protein concentrations were determined using the bicinchoninic acid (BCA) protein assay kit (Pierce, Rockford, IL, USA) according to manufacturer’s instructions. Cell lysates with 25 µg of protein were resolved on 12% sodium dodecyl sulfate-polyacrylamide gel electrophoresis (SDS-PAGE) gels and electro-transferred onto polyvinylidene difluoride (PVDF) membranes (Trans-Blot Turbo Transfer System, BioRad, Hercules, CA, USA). The samples were probed with rabbit monoclonal antibodies for the P-rps6 (1:1000) protein (Cell Signaling, Danvers, MA, USA) and mouse monoclonal antibodies for rps6 (1:1000) (Cell Signaling) and β-actin (1:5000) (Abcam, Waltham, MA, USA) proteins. Blots were visualized using anti-rabbit or anti-mouse horseradish peroxidase (HRP)-conjugated antibodies (Cell Signaling) and chemiluminescence reagent (Thermo Fisher Scientific, Waltham, MA, USA).
PANC-1 cells were chosen for this study as they are highly dependent on mTOR for their growth. PANC-1 cells were cultured and treated with the positive control rapamycin (10 nM) and chalcones NM5, 8a, 8o, 8s, 8v, and 8w (10 μM) for 72 h. Rapamycin and the chalcones were dissolved in 100% DMSO and dosed so that the final DMSO concentration was 0.1%. Cell lysates were collected and analyzed to determine the relative protein expression levels of rps6, prps6, and β-actin as a loading control (see Figure 12).

mTOR signaling [2] = test system: mTOR signaling; design: method as in PMID 28442256; conditions: SGR2 and Huh7.5 cell lines; cited from earlier work

Compound | CHOK1 48 h EC10 (CHO-K1 cells) | EC50 (CHO-K1 cells) | EC50 (Hs27 cells) | Hs27 48 h EC10 (Hs27 cells) | % GFP relative to DMSO treated (10 µM) (PIV5-GFP) | prps6 expression relative to DMSO control (mTOR signaling [1]) | Effect on mTOR signaling (mTOR signaling [2]) | total rps6 protein expression relative to DMSO control (mTOR signaling [1])
CCOc1ccc(Br)cc1/C=C/C(=O)c1c(O)cccc1OC [Chalcone 8q, (2E)-3-(5-Bromo-2-Ethoxy-Phenyl)-1-(2-Hydroxy-6-Methoxy-Phenyl)-Propenone] | 4.3 ± 0.4 µM | 6 ± 0.3 µM | 9.9 ± 1 µM | 2.7 ± 0.04 µM | – | – | – | –
CCOc1ccc(Br)cc1/C=C/C(=O)c1c(O)cccc1OCCC(C)C [Chalcone 8r, (2E)-3-(5-Bromo-2-Ethoxy-Phenyl)-1-[2-Hydroxy-6-(3-Methyl-Butoxy)-Phenyl]-Propenone] | 4.7 ± 0.4 µM | 6.8 ± 0.7 µM | 16.9 ± 2 µM | 9.4 ± 0.7 µM | 108.7% | – | – | –
CCOc1ccc(Br)cc1/C=C/C(=O)c1c(O)cccc1OCCc1ccccc1 [Chalcone 8t, (2E)-3-(5-Bromo-2-Ethoxy-Phenyl)-1-[2-Hydroxy-6-Phenethyloxy]-Propenone] | 1.1 ± 0.1 µM | 2.6 ± 0.2 µM | 10.3 ± 0.5 µM | 6.4 ± 0.5 µM | 84.9% | – | – | –
COc1ccc(Br)cc1/C=C/C(=O)c1c(O)cccc1OCCc1ccccc1 [Chalcone 8u, (2E)-3-(5-Bromo-2-Methoxy-Phenyl)-1-[2-Hydroxy-6-Phenethyloxy]-Propenone] | 1.0 ± 0.1 µM | 4.3 ± 0.3 µM | 4.9 ± 0.6 µM | 3.4 ± 0.5 µM | – | – | – | –
COc1ccc(/C=C/C(=O)c2c(O)cccc2OCc2ccccc2)c(OC)c1OC [Chalcone 8y, (2E)-1-(2-Benzloxy-6-Hydroxy-Phenyl)-3-(2,3,4-Trimethoxy-Phenyl)-Propenone] | 7.2 ± 0.6 µM | 15.8 ± 1 µM | 7.7 ± 0.2 µM | 6.3 ± 0.2 µM | – | – | – | –
COc1ccc(/C=C/C(=O)c2cc(Br)cc(Br)c2O)cc1OC [NM5, (2E)-1-(3,5-Dibromo-2-hydroxyphenyl)-3-(3,4-dimethoxyphenyl)-2-propen-1-one, reference compound] | 1.1 ± 0.1 µM | 6.2 ± 0.3 µM | 1.8 ± 0.1 µM | 1.0 ± 0.1 µM | – | stimulate this prps6 mTOR readout | inhibit mTOR signaling | –
CO[C@H]1C[C@@H]2CC[C@@H](C)[C@@](O)(O2)C(=O)C(=O)N2CCCC[C@H]2C(=O)O[C@H]([C@H](C)C[C@@H]2CC[C@@H](O)[C@H](OC)C2)CC(=O)[C@H](C)/C=C(\C)[C@@H](O)[C@@H](OC)C(=O)[C@H](C)C[C@H](C)/C=C/C=C/C=C/1C [rapamycin, reference compound] | – | – | – | – | – | loss of prps6 expression | – | no significant difference
